Structures are written as SMILES. Bounds are passed on as bounds.

This experiment deals with NCI-H295R. Nature of the experiment: IC50 (antiproliferative, ATP content). As to conditions: 48 h. Summed up: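 Adrenocortical carcinoma cells were plated at 1500 per well in 1536-well plates in serum-free DMEM with ITS supplement, left overnight, then given library compounds by pin transfer at 8 final concentrations spanning 0.6 nM to 46 µM and held 48 h at 37 °C, 5% CO2. ATP was measured as CellTiter-Glo luminescence after 20 min at room temperature and scaled between vehicle and positive-control wells. A four-parameter logistic model was fitted to each series. The IC50 was taken from these fits, and compounds without a concentration response were recorded as above the top dose.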
Compound `CCN1CCC[C@H]1CNC(=O)c1cc(S(N)(=O)=O)ccc1OC` displayed an IC50 above 46 µM. For `CC1(C)S[C@@H]2[C@H](NC(=O)[C@H](NC(=O)N3CCN(S(C)(=O)=O)C3=O)c3ccccc3)C(=O)N2[C@H]1C(=O)O` the value was above 46 µM; for `Cc1ccc(S(=O)(=O)NC(=O)NN2CC3CCCC3C2)cc1` (centres undefined), above 46 µM; for `CCC1(c2ccccc2)CCC(=O)NC1=O` (centres undefined), above 46 µM. On to `C=C(C)[C@@H]1[C@H]2OC(=O)[C@@H]1[C@]1(O)C[C@H]3O[C@]34C(=O)O[C@H]2[C@]14C.CC(C)(O)[C@@H]1[C@H]2OC(=O)[C@@H]1[C@]1(O)C[C@H]3O[C@]34C(=O)O[C@H]2[C@]14C`, for which the IC50 was above 46 µM. `C/C=C/C[C@@H](C)[C@@H](O)[C@H]1C(=O)N[C@@H](CC)C(=O)N(C)CC(=O)N(C)[C@@H](CC(C)C)C(=O)N[C@@H](C(C)C)C(=O)N(C)[C@@H](CC(C)C)C(=O)N[C@@H](C)C(=O)N[C@H](C)C(=O)N(C)[C@@H](CC(C)C)C(=O)N(C)[C@@H](CC(C)C)C(=O)N(C)[C@@H](C(C)C)C(=O)N1C` registered an IC50 above 46 µM. `O=C(O)COC(=O)Cc1ccccc1Nc1c(Cl)cccc1Cl` displayed an IC50 above 46 µM. For `Cl.O=C(O)c1cn(C2CC2)c2cc(N3CCNCC3)c(F)cc2c1=O` the value was above 46 µM; for `COc1ccccc1OCC(O)COC(N)=O` (centres undefined), above 46 µM. Compound `COc1cc(-c2ccc(=O)[nH]n2)ccc1OC(F)F` displayed an IC50 above 46 µM. As for `Cc1nnc2n1-c1ccc(Cl)cc1C(c1ccccc1Cl)=NC2`, the IC50 was above 46 µM. For `O=C2N1[C@]([C@@]([H])2NC(C(CC)OC3=CC=CC=C3)=O)([H])SC(C)(C)[C@@H]1[C@@](O)=O` (some centres undefined) the value was above 46 µM; for `CN(C)c1ccc(O)c2c1C[C@H]1C[C@H]3[C@H](N(C)C)C(O)=C(C(N)=O)C(=O)[C@@]3(O)C(O)=C1C2=O.Cl`, above 46 µM; for `C=C[C@H]1C[N@@]2CC[C@H]1C[C@H]2[C@H](OC(=O)OCC)c1ccnc2ccc(OC)cc12`, above 46 µM. The value for `C=CCC1(C(C)CCC)C(=O)N=C([S-])NC1=O.[Na+]` (centres undefined) was above 46 µM; that for `C[C@H](CCCC(C)(C)O)[C@H]1CC[C@H]2[C@@H]3CC=C4C[C@@H](O)CC[C@]4(C)[C@H]3CC[C@]12C` was above 46 µM; that for `Oc1ccc2[nH]cc(CCCCN3CC=C(c4ccccc4)CC3)c2c1` was above 46 µM.

As to `CCCc1nc(C(C)(C)O)c(C(=O)OCc2oc(=O)oc2C)n1Cc1ccc(-c2ccccc2-c2nnn[nH]2)cc1`, the IC50 was above 46 µM. For `CCc1cccc(CC)c1NC(=O)CN(CC(=O)O)CC(=O)O` the value was above 46 µM; for `CC(=O)Oc1cccc(C)c1`, above 46 µM. The value for `COc1cc2c(cc1OC)C1CC(=O)C(CC(C)C)CN1CC2` (centres undefined) was above 46 µM. Turning to `O=P1(NCCCl)OCCCN1CCCl` (centres undefined), the IC50 was above 46 µM.

For the compound `Cc1ccccc1-n1c(CF)nc2ccc(N)cc2c1=O`, the IC50 is above 46 µM. For `CC(C)(CO)[C@@H](O)C(=O)NCCCO` the value was above 46 µM; for `CN(C)CCc1c[nH]c2ccc(CS(=O)(=O)N3CCCC3)cc12`, above 46 µM. In turn, `N#Cc1nn(-c2c(Cl)cc(C(F)(F)F)cc2Cl)c(N)c1S(=O)C(F)(F)F` (centres undefined) displayed an IC50 above 46 µM. For the compound `CCCCCCCCCCCCCCCC(=O)OC(C)C`, the IC50 is above 46 µM. For the compound `CC(=O)OCC(=O)[C@@]1(O)CC[C@H]2[C@@H]3CCC4=CC(=O)CC[C@]4(C)C3=CC[C@@]21C`, the IC50 was above 46 µM.

As to `CC(=O)Oc1c(C)cc(OCC(O)CNC(C)C)c(C)c1C` (centres undefined), the IC50 is above 46 µM. The value for `CCN(CC)CCNC(=O)C1C(C)=NC(/C=C2/C(=O)Nc3ccc(F)cc32)=C1C.O=C(O)CC(O)C(=O)O` (centres undefined) was above 46 µM; that for `N=C(N)NS(=O)(=O)c1ccc(N)cc1` was above 46 µM; that for `CC(C)(N)Cc1ccc(Cl)cc1.Cl` was above 46 µM. For `CC(=O)NO` the value was above 46 µM; for `C=CC1=C(C(=O)O)N2C(=O)[C@@H](NC(=O)C(=NO)c3csc(N)n3)[C@H]2SC1`, above 46 µM. The compound `CC(=O)Nc1ccc(CC(=O)O)cc1` displayed an IC50 above 46 µM. For `Nc1ccc(S(=O)(=O)Nc2ccccc2)cc1` the value was above 46 µM; for `CN1CCC(Nc2ncc3ncnc(Nc4ccc(F)c(Cl)c4)c3n2)CC1.Cl.Cl`, above 46 µM; for `CCCCCCOC(=O)c1cccnc1`, above 46 µM. For `Cc1cccc(C)c1NC(=O)C1CCCCN1C.Cl` (centres undefined) the value was above 46 µM; for `C#Cc1cccc(Nc2ncnc3cc(OCCOC)c(OCCOC)cc23)c1`, above 46 µM. On to `NC(=O)N1c2ccccc2C=Cc2ccccc21`, for which the IC50 was above 46 µM.

In the case of `CN(C)CCCN1c2ccccc2Sc2ccc(C(F)(F)F)cc21.Cl`, the IC50 was above 46 µM. The value for `CCOc1ccc(C(=O)OCCN(CC)CC)cc1` was above 46 µM; that for `C[C@H](O)[C@H](O)[C@H]1CNc2[nH]c(N)nc(=O)c2N1.Cl.Cl` was above 46 µM; that for `O=C1c2ccccc2CN2C(=O)c3ccccc3CN12` was above 46 µM. In the case of `CCC(=O)O[C@H]1CC[C@H]2[C@@H]3CCC4=CC(=O)CC[C@]4(C)[C@H]3CC[C@]12C`, the IC50 is above 46 µM. The value for `NS(=O)(=O)c1ccc(Cl)c(S(N)(=O)=O)c1` was above 46 µM; that for `NC12CC3CC(CC(C3)C1)C2` was above 46 µM; that for `C=CCCCCCCCCC(=O)O` was above 46 µM.

With `O=C1OC2(c3cc(Br)c([O-])cc3Oc3c2cc(Br)c([O-])[c]3[Hg][OH])c2ccccc21.[Na+].[Na+]` (centres undefined), the IC50 was above 46 µM. The value for `O=C(NCCNCC(O)COc1ccc(O)cc1)N1CCOCC1` (centres undefined) was above 46 µM; that for `O[C@H]1[C@H](O)[C@@H](O)[C@H](O)[C@@H](O)[C@H]1O` was above 46 µM.

`[Cl][In]([Cl])[Cl]` returned an IC50 above 46 µM. With `CC(=O)Oc1ccc2c3c1O[C@H]1[C@@H](OC(C)=O)C=C[C@H]4[C@@H](C2)N(C)CC[C@@]341`, the IC50 is above 46 µM. Compound `O=C(O)Cc1ccc(CCNS(=O)(=O)c2ccc(Cl)cc2)cc1` showed an IC50 above 46 µM. The value for `C#C[C@]1(O)CC[C@H]2[C@@H]3CCc4cc(OC)ccc4[C@H]3CC[C@@]21C` was above 46 µM. For `CCc1cn([C@H]2C[C@H](O)[C@@H](CO)O2)c(=O)[nH]c1=O` the value was above 46 µM; for `O[C@H]1[C@@H]([C@H](O)CO)O[C@H]2[C@@H]1O[C@@H]([C@@](Cl)(Cl)Cl)O2`, above 46 µM. The value for `Nc1nc(=O)c(Br)c(-c2ccccc2)[nH]1` was above 46 µM; that for `CC(C)(C)NC(=O)[C@H]4CC[C@@H]3[C@]4(C)CC[C@H]1[C@H]3CC[C@H]2NC(=O)\C=C/[C@]12C` was above 46 µM. For `O=C(O)CCC(=O)c1ccc(-c2ccccc2)cc1`, the IC50 was above 46 µM.

Consider `CCCCCCCCC(=O)NCc1ccc(O)c(OC)c1`, for which the IC50 was above 46 µM.

Turning to `COc1ccc(C=NNC(=O)c2ccncc2)c(C(=O)O)c1OC`, the IC50 was above 46 µM. For `CC(C)Cc1ccc([C@@H](C)C(=O)NS(C)(=O)=O)cc1` the value was above 46 µM.

As a reminder, the IC50 is the midpoint of a concentration-inhibition curve.
